Experiment: BDNA-assay: HBV replication inhibition by the compounds of this invention could be determined in cells infected or transfected with HBV, or cells with stably integrated HBV, such as HepG2.2.15 cells (Sells et al. 1987). In this example, HepG2.2.15 cells were maintained in cell culture medium containing 10% fetal bovine serum (FBS), Geneticin, L-glutamine, penicillin and streptomycin. HepG2.2.15 cells could be seeded in 96-well plates at a density of 40,000 cells/well and be treated with serially diluted compounds at a final DMSO concentration of 0.5% either alone or in combination by adding drugs in a checker box format. Cells were incubated with compounds for three days, after which medium was removed and fresh medium containing compounds was added to cells and incubated for another three days. At day 6, supernatant was removed and treated with DNase at 37° C. for 60 minutes, followed by enzyme inactivation at 75° C. for 15 minutes. Encapsidated HBV DNA was released from the virions and covalently linked HBV polymerase by incubating in lysis buffer (Affymetrix QS0010) containing […] proteinase K at 50° C. for 40 minutes. HBV DNA was denatured by addition of 0.2 M NaOH and detected using a branched DNA (BDNA) QuantiGene assay kit according to manufacturer recommendation (Affymetrix). HBV DNA levels could also be quantified using qPCR, based on amplification of encapsidated HBV DNA extraction with QuickExtraction Solution (Epicentre Biotechnologies) and amplification of HBV DNA using HBV specific PCR probes that can hybridize to HBV DNA and a fluorescently labeled probe for quantitation. In addition, cell viability of HepG2.2.15 cells incubated with test compounds alone or in combination was determined by using CellTitre-Glo reagent according to the manufacturer protocol (Promega). The mean background signal from wells containing only culture medium was subtracted from all other samples, and percent inhibition at each compound concentration was calculated by normalizing to signals from HepG2.2.15 cells treated with 0.5% DMSO using equation E1.

Structure (SMILES)	EC50
CCC(=O)c1n[nH]c2c1CN(C(=O)Nc1cccc(Cl)c1)CC2	< 0.5 µM
CC(C)CON(C)C(=O)c1n[nH]c2c1CN(C(=O)Nc1cccc(Cl)c1)CC2	< 0.5 µM
CN(OCC1CC1)C(=O)c1n[nH]c2c1CN(C(=O)Nc1cccc(Cl)c1)CC2	< 0.5 µM
CN(OC1CCC1)C(=O)c1n[nH]c2c1CN(C(=O)Nc1cccc(Cl)c1)CC2	< 0.1 µM
O=C(Nc1cccc(Cl)c1)N1CCc2[nH]nc(C(=O)N3CC(O)CO3)c2C1 (stereo not given)	< 1 µM
CCN(OC)C(=O)c1n[nH]c2c1CN(C(=O)Nc1cccc(Cl)c1)CC2	< 0.1 µM
CCCON(C)C(=O)c1n[nH]c2c1CN(C(=O)Nc1cccc(Cl)c1)CC2	< 0.5 µM
CN(C)N(C)C(=O)c1n[nH]c2c1CN(C(=O)Nc1cccc(Cl)c1)CC2	< 0.1 µM
CN(OC1CCOC1)C(=O)c1n[nH]c2c1CN(C(=O)Nc1cccc(Cl)c1)CC2 (stereo not given)	< 0.5 µM
CC(C)ON(C)C(=O)c1n[nH]c2c1CN(C(=O)Nc1cccc(Cl)c1)CC2	< 0.1 µM
CCON(C)C(=O)c1n[nH]c2c1CN(C(=O)Nc1cccc(Cl)c1)CC2	< 0.1 µM
CON(C)C(=O)c1n[nH]c2c1CN(C(=O)Nc1cccc(Cl)c1)CC2	< 0.1 µM
O=C(Nc1cccc(Cl)c1)N1CCc2[nH]nc(C(=O)N3CCCO3)c2C1	< 0.5 µM
CON(C(=O)c1n[nH]c2c1CN(C(=O)Nc1cccc(Cl)c1)CC2)C(C)C	< 0.5 µM
CN(OCCO)C(=O)c1n[nH]c2c1CN(C(=O)Nc1cccc(Cl)c1)CC2	< 0.5 µM
CN(O)C(=O)c1n[nH]c2c1CN(C(=O)Nc1cccc(Cl)c1)CC2	< 1 µM
CN1CC(ON(C)C(=O)c2n[nH]c3c2CN(C(=O)Nc2cccc(Cl)c2)CC3)C1	< 0.5 µM
CCCC(=O)c1n[nH]c2c1CN(C(=O)Nc1cccc(Cl)c1)CC2	< 0.1 µM
COCCON(C)C(=O)c1n[nH]c2c1CN(C(=O)Nc1cccc(Cl)c1)CC2	< 0.5 µM
O=C(Nc1cccc(Cl)c1)N1CCc2[nH]nc(C(=O)N3CC(F)CO3)c2C1 (stereo not given)	< 0.1 µM

Reference: ChEMBL document CHEMBL5726216, “Derivatives and methods of treating hepatitis B infections” (2019)
